Measurements: PubChem BioAssay AID330 (DTP/NCI, 2004)
Values joined by “and” are separate entries in the source; they are usually repeats but may differ in a detail not shown here. Identical values can stand only once. Inconclusive results and toxic doses are left out.

System: P388 leukemia ip, CD2F1 mice, survival T/C
Test: NCI In Vivo Anticancer Drug Screen. Data for tumor model P388 Leukemia (intraperitoneal) in CD2F1 (CDF1) mice
Conditions: endpoint: median survival time, higher = longer survival
How it was run: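 Mice carrying the transplanted tumor received test compound or vehicle. Survival was recorded in each group, and the value is the treated-group measurement divided by that of the vehicle-treated control group.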

[1] = dose: 50.0 mg/kg/injection, schedule: Q01DX005 (ip), vehicle: saline with Tween-80
[2] = dose: 100.0 mg/kg/injection, schedule: Q01DX005 (ip), vehicle: saline with Tween-80
[3] = dose: 50.0 mg/kg/injection, schedule: Q04DX002 (ip), vehicle: saline with Tween-80
[4] = dose: 60.0 mg/kg/injection, schedule: Q01DX005 (ip), vehicle: saline with Tween-80
[5] = dose: 120.0 mg/kg/injection, schedule: Q01DX005 (ip), vehicle: saline with Tween-80
[6] = dose: 240.0 mg/kg/injection, schedule: Q01DX005 (ip), vehicle: saline with Tween-80
[7] = dose: 50.0 mg/kg/injection, schedule: Q01DX005 (ip), vehicle: saline
[8] = dose: 100.0 mg/kg/injection, schedule: Q01DX005 (ip), vehicle: saline
[9] = dose: 60.0 mg/kg/injection, schedule: Q01DX005 (ip), vehicle: saline
[10] = dose: 120.0 mg/kg/injection, schedule: Q01DX005 (ip), vehicle: saline
[11] = dose: 25.0 mg/kg/injection, schedule: Q01DX005 (ip), vehicle: saline
[12] = dose: 50.0 mg/kg/injection, schedule: Q01DX009 (ip), vehicle: saline
[13] = dose: 100.0 mg/kg/injection, schedule: Q01DX009 (ip), vehicle: saline
[14] = dose: 12.5 mg/kg/injection, schedule: Q01DX009 (ip), vehicle: saline
[15] = dose: 50.0 mg/kg/injection, schedule: Q01DX009 (ip), vehicle: saline with Tween-80
[16] = dose: 100.0 mg/kg/injection, schedule: Q01DX009 (ip), vehicle: saline with Tween-80
[17] = dose: 200.0 mg/kg/injection, schedule: Q01DX009 (ip), vehicle: saline with Tween-80

In the case of Cc1ccc(I)c(C(C)(C)O)c1, the T/C (dose: 50.0 mg/kg/injection, schedule: Q01DX009 (ip), vehicle: Klucel (hydroxypropylcellulose) (HPC)) is reported as 100 % of control, the T/C (dose: 100.0 mg/kg/injection, schedule: Q01DX009 (ip), vehicle: Klucel (hydroxypropylcellulose) (HPC)) is reported as 95 % of control and the T/C (dose: 200.0 mg/kg/injection, schedule: Q01DX009 (ip), vehicle: Klucel (hydroxypropylcellulose) (HPC)) is reported as 97 % of control.

For O=CNC(Cc1ccccc1)C(=O)O (stereo unspecified), the T/C [1] was 94 % of control and the T/C [2] was 102 % of control.

CC1OC(Nc2ncnc3nc[nH]c23)C(O)C(O)C1NC(=O)CNC(=O)CCCCCCCCC/C=C\C(C)(C)C (stereo unspecified) was tested, and the T/C (dose: 0.25 mg/kg/injection, schedule: Q01DX009 (ip), vehicle: distilled water + Tween-80) was 113 % of control, the T/C (dose: 0.5 mg/kg/injection, schedule: Q01DX009 (ip), vehicle: distilled water + Tween-80) was 113 % of control and 123 % of control and the T/C (dose: 4.0 mg/kg/injection, schedule: Q01DX009 (ip), vehicle: distilled water + Tween-80) was 100 % of control.

COC(=O)C(Br)CN1C(=O)c2ccccc2C1=O (stereo unspecified) was tested, and the T/C (dose: 25.0 mg/kg/injection, schedule: Q01DX009 (ip), vehicle: other) was 102 % of control, the T/C (dose: 50.0 mg/kg/injection, schedule: Q01DX009 (ip), vehicle: other) was 101 % of control and the T/C (dose: 100.0 mg/kg/injection, schedule: Q01DX009 (ip), vehicle: other) was 106 % of control. The T/C (dose: 200.0 mg/kg/injection, schedule: Q01DX009 (ip), vehicle: other) was 104 % of control and the T/C (dose: 400.0 mg/kg/injection, schedule: Q01DX009 (ip), vehicle: other) was 104 % of control.

For CSc1sc(C#N)c(N)c1N=Cc1ccccc1, the T/C (dose: 12.5 mg/kg/injection, schedule: Q04DX002 (ip), vehicle: saline with Tween-80) was 106 % of control, the T/C (dose: 25.0 mg/kg/injection, schedule: Q04DX002 (ip), vehicle: saline with Tween-80) was 101 % of control and the T/C [3] was 97 % of control.

In the case of COc1cccc(C(Nc2nncs2)Nc2nncs2)c1OC, the T/C [4] is reported as 87 % of control, the T/C [5] is reported as 91 % of control and the T/C [6] is reported as 100 % of control.

In the case of [Cl][Ge]([c]1ccccc1)[c]1ccccc1.[Cl][Ge]([c]1ccccc1)[c]1ccccc1, the T/C (dose: 3.12 mg/kg/injection, schedule: Q01DX005 (ip), vehicle: Klucel (hydroxypropylcellulose) (HPC)) is reported as 111 % of control, the T/C (dose: 6.25 mg/kg/injection, schedule: Q01DX005 (ip), vehicle: Klucel (hydroxypropylcellulose) (HPC)) is reported as 116 % of control and the T/C (dose: 12.5 mg/kg/injection, schedule: Q01DX005 (ip), vehicle: Klucel (hydroxypropylcellulose) (HPC)) is reported as 106 % of control.

For NC(N)=NCCSCc1ccc2ccccc2n1, the T/C [7] was 94 % of control and the T/C [8] was 101 % of control.

In the case of COC(=O)c1nc(=S)[nH]c(C(=O)OC)c1C(=O)c1cccnc1, the T/C [9] is reported as 108 % of control and the T/C [10] is reported as 110 % of control.

For CCCCCC[CH2][Sn]([Cl])([CH2]C)[O][Sn]([Cl])([CH2]C)[CH2]CCCCCC (stereo unspecified), the T/C (dose: 12.5 mg/kg/injection, schedule: Q01DX005 (ip), vehicle: saline) was 86 % of control, the T/C [11] was 86 % of control and the T/C [7] was 98 % of control and 90 % of control. The T/C [8] was 110 % of control and the T/C (dose: 200.0 mg/kg/injection, schedule: Q01DX005 (ip), vehicle: saline) was 98 % of control.

In the case of Cc1nc(N)n[nH]1, the T/C [12] is reported as 102 % of control, the T/C [13] is reported as 109 % of control and the T/C (dose: 200.0 mg/kg/injection, schedule: Q01DX009 (ip), vehicle: saline) is reported as 105 % of control. The T/C (dose: 400.0 mg/kg/injection, schedule: Q01DX009 (ip), vehicle: saline) was 96 % of control.

With C[S+](C)c1ccc(Cl)cc1 the T/C [14] was 95 % of control, the T/C (dose: 25.0 mg/kg/injection, schedule: Q01DX009 (ip), vehicle: saline) was 91 % of control and the T/C [12] was 108 % of control.

CN(C)NC=O was tested, and the T/C [9] was 102 % of control, the T/C [10] was 102 % of control and the T/C (dose: 240.0 mg/kg/injection, schedule: Q01DX005 (ip), vehicle: saline) was 114 % of control.

For COc1ccc(NC(=O)C(Cl)Cl)ccc1=O, the T/C [15] was 91 % of control.

With CNC(=O)OCc1ccccc1-c1ccccc1 the T/C [15] was 98 % of control, the T/C [16] was 97 % of control and the T/C [17] was 95 % of control.

CC1=Nc2nnnn2N=C(C)C1 was tested, and the T/C [11] was 104 % of control, the T/C [7] was 92 % of control and the T/C [8] was 95 % of control.

With Cc1ccc(C)c(S(=O)(=O)Nc2c([N+](=O)[O-])cc([N+](=O)[O-])c3ccccc23)c1 the T/C [3] was 95 % of control and the T/C (dose: 100.0 mg/kg/injection, schedule: Q04DX002 (ip), vehicle: saline with Tween-80) was 88 % of control.

With C/C(=N\N=C(/[Se])N1CCN(c2ccc(F)cc2)CC1)c1ccccn1 the T/C (dose: 100.0 mg/kg/injection, schedule: Q04DX003 (ip), vehicle: Klucel (hydroxypropylcellulose) (HPC)) was 101 % of control, the T/C (dose: 200.0 mg/kg/injection, schedule: Q04DX003 (ip), vehicle: Klucel (hydroxypropylcellulose) (HPC)) was 108 % of control and the T/C (dose: 400.0 mg/kg/injection, schedule: Q04DX003 (ip), vehicle: Klucel (hydroxypropylcellulose) (HPC)) was 100 % of control.

Cc1nn(C(=S)S)c(C)c1N=Nc1ccc([N+](=O)[O-])cc1 was tested, and the T/C (dose: 25.0 mg/kg/injection, schedule: Q01DX005 (ip), vehicle: Klucel (hydroxypropylcellulose) (HPC)) was 94 % of control, the T/C (dose: 50.0 mg/kg/injection, schedule: Q01DX005 (ip), vehicle: Klucel (hydroxypropylcellulose) (HPC)) was 104 % of control and the T/C (dose: 100.0 mg/kg/injection, schedule: Q01DX005 (ip), vehicle: Klucel (hydroxypropylcellulose) (HPC)) was 108 % of control.

NC(N)=N/N=C1C=C/C(=N/N=C(N)N)C/1 was tested, and the T/C (dose: 25.0 mg/kg/injection, schedule: Q01DX001 (ip), vehicle: saline) was 104 % of control, the T/C (dose: 50.0 mg/kg/injection, schedule: Q01DX001 (ip), vehicle: saline) was 100 % of control and the T/C (dose: 100.0 mg/kg/injection, schedule: Q01DX001 (ip), vehicle: saline) was 107 % of control. The T/C (dose: 200.0 mg/kg/injection, schedule: Q01DX001 (ip), vehicle: saline) was 94 % of control.

With C=CCC1(CCC#N)C(=O)CC(C)(C)CC1=O the T/C (dose: 100.0 mg/kg/injection, schedule: Q04DX003 (ip), vehicle: saline) was 104 % of control, the T/C (dose: 200.0 mg/kg/injection, schedule: Q04DX003 (ip), vehicle: saline) was 99 % of control and the T/C (dose: 400.0 mg/kg/injection, schedule: Q04DX003 (ip), vehicle: saline) was 98 % of control.

For CCOC(=O)c1cc(OCC)c(OCC)c(OCC)c1N, the T/C [15] was 100 % of control, the T/C [16] was 100 % of control and the T/C [17] was 111 % of control.

With O=C(N/N=C/c1cccc2ccccc12)c1cccnc1 the T/C (dose: 6.25 mg/kg/injection, schedule: Q01DX009 (ip), vehicle: saline) was 100 % of control, the T/C [14] was 89 % of control and the T/C [13] was 98 % of control.

With O=C(O)C(Cc1ccccc1)N=Cc1ccc(O)cc1 (stereo unspecified) the T/C (dose: 100.0 mg/kg/injection, schedule: Q04DX003 (ip), vehicle: saline with Tween-80) was 102 % of control, the T/C (dose: 200.0 mg/kg/injection, schedule: Q04DX003 (ip), vehicle: saline with Tween-80) was 106 % of control and the T/C (dose: 400.0 mg/kg/injection, schedule: Q04DX003 (ip), vehicle: saline with Tween-80) was 97 % of control.

N=C(N)c1ccc2cc(/C=C/c3cc4ccc(C(=N)N)cc4o3)[nH]c2c1 was tested, and the T/C (dose: 50.0 mg/kg/injection, schedule: Q04DX003 (ip), vehicle: saline) was 157 % of control and the T/C (dose: 50.0 mg/kg/injection, schedule: Q04DX003 (ip), vehicle: suspension in saline) was 208 % of control.

COC(=O)C(C)Oc1ccc(OC#N)cc1 (stereo unspecified) was tested, and the T/C [4] was 102 % of control, the T/C [5] was 101 % of control and the T/C [6] was 93 % of control.

With COC(=O)C(CS[C@@H]1CCCC[C@H]1O)NC(C)=O (stereo partly specified) the T/C (dose: 40.0 mg/kg/injection, schedule: Q01DX005 (ip), vehicle: saline) was 92 % of control, the T/C [9] was 96 % of control and the T/C [10] was 96 % of control.

N#CN1C2CCC1CC(O)(c1ccccc1)C2 (stereo unspecified) was tested, and the T/C [1] was 104 % of control and 99 % of control, the T/C [2] was 102 % of control and the T/C (dose: 200.0 mg/kg/injection, schedule: Q01DX005 (ip), vehicle: saline with Tween-80) was 103 % of control.

CSC1(SC)CCN(C)C1=O was tested, and the T/C (dose: 25.0 mg/kg/injection, schedule: Q01DX009 (ip), vehicle: saline with Tween-80) was 90 % of control, the T/C [15] was 93 % of control and the T/C [16] was 92 % of control.

For CCOP(=S)(OCC)OC(=O)C(C)SSC (stereo unspecified) (tested in a mixture with another compound), the T/C [4] was 101 % of control and the T/C [5] was 104 % of control.

For COc1ccc(S(=O)(=O)OCCCl)cc1, the T/C [15] was 100 % of control, the T/C [16] was 97 % of control and the T/C [17] was 100 % of control.
